Laboratory results: patent US20170305922A1, “CARM1 INHIBITORS AND USES THEREOF” (Epizyme, Inc., priority 2014, published 2017)
pIC50: −log10 of the molar value.

Columns and labels:
[1] = system: asymmetric di-methyl PABP1 in RKO cells; assay: RKO methylation assay: In Cell Western (ICW) for asymmetric di-methyl PABP1 (PABP1me2a); conditions: Cellular-based (PABP1me2a) ICW (In Cell Western) assay
Outline: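 In-cell western on compound-exposed RKO cells (48 hours): asymmetric di-methyl PABP1 detected by antibody at 800 nm, DNA content by DRAQ5 at 700 nm. Percent inhibition from signal ratios against DMSO (minimum) and 20 μM reference compound (maximum) wells; IC50 curves fitted from triplicates.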

Human CARM1 (PRMT4) = target: T1, Human CARM1 (PRMT4) (Homo sapiens, UniProt Q86X55); assay: CARM1 enzyme assay on peptide substrates (3H-SAM Flashplate); conditions: Biochemical assay; CARM1 0.25 nM, 3H-SAM 30 nM, peptide 250 nM; read-out: Biochem IC50
T1 construct: Flag-CARM1-His was eluted with 200 ug/ml FLAG peptide in buffer A; made in house; host or cells: HEK 293F cells infected with recombinant baculovirus (pFastBacMam)
T1 sequence (Q86X55 1-585 isoform Q86X55-1): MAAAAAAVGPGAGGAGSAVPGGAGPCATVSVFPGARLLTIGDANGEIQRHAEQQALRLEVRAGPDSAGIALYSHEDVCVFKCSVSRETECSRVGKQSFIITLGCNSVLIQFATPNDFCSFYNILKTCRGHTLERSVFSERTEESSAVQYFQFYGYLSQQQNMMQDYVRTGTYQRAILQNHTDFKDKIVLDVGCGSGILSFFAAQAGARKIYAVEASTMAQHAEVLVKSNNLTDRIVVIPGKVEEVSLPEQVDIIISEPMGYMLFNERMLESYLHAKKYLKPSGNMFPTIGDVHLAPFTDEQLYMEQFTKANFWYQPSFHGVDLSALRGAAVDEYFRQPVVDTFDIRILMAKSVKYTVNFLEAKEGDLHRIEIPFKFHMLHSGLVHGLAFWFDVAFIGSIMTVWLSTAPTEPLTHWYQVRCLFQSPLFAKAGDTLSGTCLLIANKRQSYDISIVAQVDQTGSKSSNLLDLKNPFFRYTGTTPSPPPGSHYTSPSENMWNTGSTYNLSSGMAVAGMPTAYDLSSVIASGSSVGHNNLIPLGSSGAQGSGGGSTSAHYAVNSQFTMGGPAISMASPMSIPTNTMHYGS

Structure (SMILES)	pIC50 ([1]; 48 hours)	pIC50 (Human CARM1 (PRMT4))	pIC50 ([1]; Homo sapiens, RKO, 48 h)
CNC[C@@H](O)COc1ccc(Cl)c(-c2nc(-c3c(C)noc3C)c(C)c(N3CC4(CC(OCC(F)F)C4)C3)n2)c1 [Example 290]	7.42	8.47	
CNC[C@H](O)COc1ccc(Cl)c(-c2nc(-c3c(C)noc3C)c(C)c(N3Cc4cccnc4C3)n2)c1 [Example 293]		8.85	6.81
CNC[C@@H](O)COc1ccc(Cl)c(-c2nc(-c3c(C)c(Cl)nn3C)c(C)c(N3CC4(CCCN(C(=O)OC)C4)C3)n2)c1 [Example 295]		8.42	7.08
CNC[C@@H](O)COc1ccc(Cl)c(-c2nc(-c3c(C)noc3C)c(C)c(N3CC4(CCCN(C(=O)OC)C4)C3)n2)c1 [Example 296]		8.19	6.86
CNC[C@@H](O)COc1ccc(Cl)c(-c2nc(-c3c(C)c(Br)nn3C)c(C)c(N3CC4(CC(OCCC#N)C4)C3)n2)c1 [Example 297]		8.55	7.40
CNC[C@@H](O)COc1ccc(Cl)c(-c2nc(-c3c(C)c(Br)nn3C)c(C)c(N3CC4(CN(CCC#N)C4)C3)n2)c1 [Example 298]		8.51	6.61
CNC[C@@H](O)COc1ccc(Cl)c(-c2nc(-c3c(Cl)cnn3C)c(C)c(N3Cc4cnc(N5CC(OC)C5)nc4C3)n2)c1 [Example 299]		8.53	7.75
CNC[C@@H](O)COc1ccc(Cl)c(-c2nc(-c3c(C)noc3C)c(C)c(N3CC4(CCCN(CC(F)(F)F)C4)C3)n2)c1 [Example 301]		8.10	6.90
CNC[C@@H](O)COc1ccc(Cl)c(-c2nc(-c3c(C)noc3C)c(C)c(N3CC4(CCCN(C(=O)OCC(F)F)C4)C3)n2)c1 [Example 302]		8.29	7.15
CNC[C@@H](O)COc1ccc(Cl)c(-c2nc(-c3c(C)c(Br)nn3C)c(C)c(N3CC4(CC(OCC(F)F)C4)C3)n2)c1 [Example 303]		8.23	7.42
CNC[C@@H](O)COc1ccc(Cl)c(-c2nc(-c3c(C)c(Br)nn3C)c(C)c(N3CC(CCl)(CNCC(F)(F)F)C3)n2)c1 [Example 304]		8.17	6.85
CNC[C@@H](O)COc1ccc(Cl)c(-c2nc(-c3c(C)c(Br)nn3C)c(C)c(N3CC4(CN(CC(F)(F)F)C4)C3)n2)c1 [Example 305]	7.56	8.08	
CNC[C@@H](O)COc1ccc(Cl)c(-c2nc(-c3c(C)noc3C)c(C)c(N3CC4(CC(C#N)C4)C3)n2)c1 [Example 306]		8.19	6.76
CCOc1ncc2c(n1)CN(c1nc(-c3cc(OC[C@H](O)CNC)ccc3Cl)nc(-c3c(Cl)cnn3C)c1C)C2 [Example 307]		8.41	7.34
Cc1noc(C)c1-c1nc(-c2cc(OC[C@H](O)CN(C)C=O)ccc2Cl)nc(N2Cc3cccnc3C2)c1C [Example 308]		6.92	5.74
CNC[C@@H](O)COc1ccc(Cl)c(-c2nc(-c3c(C)noc3C)c(C)c(N3CC4(C3)CN([C@H](C)C(F)(F)F)C4)n2)c1 [Example 330]		8.32	7.39
CNC[C@@H](O)COc1ccc(Cl)c(-c2nc(-c3c(C)noc3C)c(C)c(N3CC4(C3)CN([C@@H](C)C(F)(F)F)C4)n2)c1 [Example 331]		8.20	7.48
CNC[C@@H](O)COc1ccc(Cl)c(-c2nc(-c3c(C)c(Cl)nn3C)c(C)c(N3CC4(CC(C#N)C4)C3)n2)c1 [Example 332]		8.39	7.09

Structure (SMILES)	pIC50 ([1]; 48 hours)	pIC50 (Human CARM1 (PRMT4))	pIC50 ([1]; Homo sapiens, RKO, 48 h)
CNC[C@@H](O)COc1ccc(Cl)c(-c2nc(-c3c(C)c(Br)nn3C)c(C)c(N3CC4(CC(C#N)C4)C3)n2)c1 [Example 333]		8.61	7.19
CNC[C@@H](O)COc1ccc(Cl)c(-c2nc(-c3c(Cl)cnn3C)c(C)c(N3CC4=C(CN(C(=O)OC)CC4)C3)n2)c1 [Example 334]		8.60	7.36
CNC[C@@H](O)COc1ccc(Cl)c(-c2nc(-c3c(Cl)cnn3C)c(C)c(N3CC4=C(CN(C(=O)OC)C4)C3)n2)c1 [Example 335]		8.64	7.52
CNC[C@@H](O)COc1ccc(Cl)c(-c2nc(-c3c(Br)cnn3C)c(C)c(N3CC4=C(CN(C(=O)OC)C4)C3)n2)c1 [Example 336]		8.52	7.49
CNC[C@@H](O)COc1ccc(Cl)c(-c2nc(-c3c(C)noc3C)c(C)c(N3CC4(CCCN(CC(F)F)C4)C3)n2)c1 [Example 337]		8.30	7.22
CNC[C@@H](O)COc1ccc(Cl)c(-c2nc(-c3c(C)noc3C)c(C)c(N3CC4(CCN(C(=O)OC)CC4)C3)n2)c1Cl [Example 338]		7.51	5.74
CNC[C@@H](O)COc1ccc(Cl)c(-c2nc(-c3c(Cl)cnn3C)c(C)c(N3Cc4cnc(OC)nc4C3)n2)c1 [Example 339]		8.60	7.18
CNC[C@@H](O)COc1ccc(Cl)c(-c2nc(-c3c(Cl)cnn3C)c(C)c(N3Cc4cnc(N5CCC5)nc4C3)n2)c1 [Example 340]		8.70	7.76
CNC[C@@H](O)COc1ccc(Cl)c(-c2nc(-c3c(Cl)cnn3C)c(C)c(N3Cc4nccnc4C3)n2)c1 [Example 341]		8.57	6.73
CNC[C@@H](O)COc1ccc(Cl)c(-c2nc(-c3c(Cl)cnn3C)c(C)c(N3Cc4cnn(C)c4C3)n2)c1 [Example 342]		8.56	6.91
CNC[C@@H](O)COc1ccc(Cl)c(-c2nc(-c3c(Cl)cnn3C)c(C)c(N3Cc4cncnc4C3)n2)c1 [Example 344]		7.89	6.15
CNC[C@@H](O)COc1ccc(Cl)c(-c2nc(-c3c(C)c(C#N)nn3C)c(C)c(N3CC4(CCN(C(=O)OC)CC4)C3)n2)c1 [Example 345]		8.25	6.58
CNC[C@@H](O)COc1ccc(Cl)c(-c2nc(-c3c(C)c(C#N)nn3C)c(C)c(N3Cc4cncnc4C3)n2)c1 [Example 346]		8.64	6.85
CNC[C@@H](O)COc1cccc(-c2nc(-c3c(C#N)cnn3C)c(C)c(N3Cc4cccnc4C3)n2)c1 [Example 347]		7.55	< 5.70
CNC[C@@H](O)COc1ccc(Cl)c(-c2nc(-c3c(C#N)cnn3C)c(C)c(N3Cc4cccnc4C3)n2)c1 [Example 348]		8.25	5.78
CNC[C@@H](O)COc1ccc(Cl)c(-c2nc(-c3c(C#N)cnn3C)c(C)c(N3Cc4cncnc4C3)n2)c1 [Example 349]		8.11	5.51
CNC[C@@H](O)COc1cccc(-c2nc(-c3c(C)noc3C)c(C)c(N3CC4(CCN(C(=O)OC)CC4)C3)n2)c1Cl [Example 350]		7.43	5.14
